Data on two molecules can be found in patent publication US4438207A, “Radioimmunoassay for cannabinoids” (priority 1981, dated 1984).

For series [1], the system named is Tetrahydrocannabinol Antibody. The series is described as follows: ^125 I THC radioimmunoassay response curve, dextran-coated charcoal separation. It is filed as binding, rabbit.
The conditions of series [2]: experiments with humans; cited from earlier work.
A short description of series [3]: Urine THC levels as a function of time after smoking known dosages. To be noted: THC 2.5 mg smoked.
Series [4] concerns Tetrahydrocannabinol Antibody. As to the kind of experiment: ^125 I THC radioimmunoassay response curve, anion exchange resin separation. The series is classed as binding, rabbit. To be noted: resin reagent.
A further series relates to antiserum. The series is described as follows: Binding of iodinated antigen to THC antiserum. The arrangement: species or system rabbit. As to the method: A total of 50 μl of a solution of […] of (6aR-trans)-N-[2-(4-hydroxyphenyl)ethyl]-4-(6a,7,8,10a-Tetrahydro-6,6,9-trimethyl-3-pentyl-6H-dibenzo[b,d]pyran-1-oxy)butanamide in 1 ml of 100% alcohol was added to a vial containing 5 mCi of Na^125 I having a radioactive concentration of >100 mCi/ml. To this mixture was then added a total of 40 μl of chloramine T solution (5 mg/ml in 75% EtOH; 25% Borate buffer 0.1 M, pH 8.4). The reaction mixture was mixed for 180 seconds. After mixing, a total of 40 μl of a 1% solution of sodium meta bisulfite (75% EtOH, 25% Tris buffer 0.1 M, pH 7.0) was added to the reaction vial, and the vial contents were mixed for 30 seconds to stop the reaction.
The mixture was removed from the vial and placed on the surface of a Bio-Gel P-2 column (1.5×40 cm, 100-200 mesh) until completely absorbed on the column bed. Approximately 200 ml of 60% Tris -40% EtOH were added, and 100×1-2 ml fractions were collected. The eluate contained the above-captioned, labeled antigen.
After selection of the appropriate fractions (≥50% binding), the fractions were pooled and diluted 1:50 in 0.01 M phosphate buffered saline (PBS) containing 25% ethanol with 0.1% sodium azide and 0.002-0.007% butylated hydroxy toluene (BHT) as preservatives.
[…]. Multiple iodinations were performed on Δ^9 -tetrahydrocannabinol,and the radioisotopically-labeled reagent was used as the ^125 I-labeled antigen. The elution patterns varied considerably. In general, there were numerous small peaks in the elution patterns of most of the iodination products with the percent binding being lower than 50%. On occasion, there were two major peaks with insufficient binding (<50%) in either peak.
. Subsequent injections were made at four-week intervals with immunogen in Freund's incomplete adjuvant. Bleedings, obtained by venipuncture from immunized rabbits, were allowed to stand at 2°-8° C. temperature until the clot had formed. The serum was decanted and stored at from -20° to 5° C.

Take `CCCCCc1cc(O)c2c(c1)OC(C)(C)[C@@H]1CCC(C)=C[C@@H]21` [THC, Δ-9-tetrahydrocannabinol]: the DPM in series [1] (12.5 ng/ml THC) is recorded as 13946 DPM; in series [1] (25.0 ng/ml THC), 11964 DPM; in series [1] (50.0 ng/ml THC) it was 11389 DPM; in series [1] (100.0 ng/ml THC) it was 11342 DPM; in series [1] (200.0 ng/ml THC), 10474 DPM; in series [4] (12.5 ng/ml THC), 31096 DPM. Further, the DPM stood at 29212 DPM in series [4] (25 ng/ml THC), 27945 DPM in series [4] (50 ng/ml THC), 26333 DPM in series [4] (100 ng/ml THC) and 25651 DPM in series [4] (200 ng/ml THC). Also, the “excretion route of metabolites” value in series [2] was “mainly via feces”. Besides, the extent of metabolism entry in series [2] is on record as “almost complete metabolism”. Also, the “Tetrahydrocannabinol Concentration in urine” value in series [3] (subject 1 (smoked marijuana prior to study), sodium azide added, 0 h) was determined as 10.0 ng THC E/ml; in series [3] (subject 1 (smoked marijuana prior to study), sodium azide added, 0-4 h), 29.0 ng THC E/ml; in series [3] (subject 1 (smoked marijuana prior to study), sodium azide added, 4-8 h), 70.0 ng THC E/ml; in series [3] (subject 1 (smoked marijuana prior to study), sodium azide added, 12-24 h) it was 72.5 ng THC E/ml; in series [3] (subject 1 (smoked marijuana prior to study), sodium azide added, 24-48 h), 41.5 ng THC E/ml; in series [3] (subject 1 (smoked marijuana prior to study), sodium azide added, 48-72 h) it was 40.0 ng THC E/ml. The “Tetrahydrocannabinol Concentration in urine” value turned out to be 28.0 ng THC E/ml in series [3] (subject 1 (smoked marijuana prior to study), 0 h); 45.0 ng THC E/ml in series [3] (subject 1 (smoked marijuana prior to study), 0-4 h); 37.5 ng THC E/ml in series [3] (subject 1 (smoked marijuana prior to study), 4-8 h); 45.0 ng THC E/ml in series [3] (subject 1 (smoked marijuana prior to study), 12-24 h); 20.0 ng THC E/ml in series [3] (subject 1 (smoked marijuana prior to study), 24-48 h); 27.5 ng THC E/ml in series [3] (subject 1 (smoked marijuana prior to study), 48-72 h). In addition, the “Tetrahydrocannabinol Concentration in urine” value is on record as 5.0 ng THC E/ml in series [3] (subject 2, sodium azide added, 0 h); 11.0 ng THC E/ml in series [3] (subject 2, sodium azide added, 0-4 h); 13.5 ng THC E/ml in series [3] (subject 2, sodium azide added, 4-8 h); 7.5 ng THC E/ml in series [3] (subject 2, sodium azide added, 8-12 h); 17.5 ng THC E/ml in series [3] (subject 2, sodium azide added, 12-24 h); 7.5 ng THC E/ml in series [3] (subject 2, sodium azide added, 24-48 h). The “Tetrahydrocannabinol Concentration in urine” value in series [3] (subject 2, sodium azide added, 48-72 h) amounted to 5.0 ng THC E/ml; in series [3] (subject 2, 0 h) it was 5.0 ng THC E/ml; in series [3] (subject 2, 0-4 h), 4.0 ng THC E/ml; in series [3] (subject 2, 4-8 h), 26.0 ng THC E/ml; in series [3] (subject 2, 8-12 h), 10.0 ng THC E/ml; in series [3] (subject 2, 12-24 h), 7.5 ng THC E/ml. The “Tetrahydrocannabinol Concentration in urine” value turned out to be 22.5 ng THC E/ml in series [3] (subject 2, 24-48 h) and 12.5 ng THC E/ml in series [3] (subject 2, 48-72 h).

Regarding “(6aR-trans)-N-[2-hydroxyphenyl)ethyl]-4-(6a,7,10,10a-Tetrahydro-6,6,9-trimethyl-3-pentyl-6H-dibenzo[b,d]pyran-1-oxy)butanamide [Δ^9 -Tetrahydrocannabinol Derivative]”, the binding properties retained in the series on antiserum (antigen reagent, at least six weeks) is recorded as more than 50%. Besides, in the series with antiserum (upon iodination, major peak, fractions #10 to #15), the “binding of iodinated product, major peak” value was more than 50%. Also, the “binding of iodinated product, minor peak” value in the series on antiserum (upon iodination, minor peak, fractions #30 to #35) is given as “no binding”.
